Measured values published in paper PMC3485097, “Branching of the p-nitrophenol (PNP) degradation pathway in burkholderia sp. Strain SJ98: Evidences from genetic characterization of PNP gene cluster” (AMB Express, 2012).

Tests used:
[1] = tested on: T1, reconstituted HqD (PnpE1_2-PnpE2_2 heterotetrameric complex); experiment: spectrophotometric, 4-hydroxymuconic semialdehyde formation at […] nm; format: biochemical, Burkholderia sp. SJ98; details: pH 7.0, 25°C; Fe(II) required (100 μM FeSO4 in the standard assay)
T1 construct: gene pnpE1; N-terminal 6xHis on both subunits (pDEST17), E. coli BL21-AI; mixed, gel-filtered, ~120 kDa heterotetramer; with Hydroquinone dioxygenase small subunit

[2] = target: PnpE2, small subunit of hydroquinone dioxygenase (HqD) of Burkholderia sp. strain SJ98 (Burkholderia sp. strain SJ98); experiment: SEC; purified PnpE1 and PnpE2 mixed in molar ratios from 3:1 to 1:3 in 50 mM phosphate buffer pH 7.0, incubated at 30°C for 1 h, then Sephacryl-200 gel filtration; molecular weight from the elution volume against standard proteins

stoichiometry N (molecules of each subunit (2:2)) [2] | Compound | Km [1] [µM]
 | Oc1ccc(O)cc1 [HQ, hydroquinone] | 65.3 ± 10.5
2 | PnpE1, large subunit of hydroquinone dioxygenase (HqD) of Burkholderia sp. strain SJ98 (natural protein) | 
